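Growth conditions: 96-well plates. Treatment: test compound, 48 hours, 5 concentrations. Analysis: linear interpolation between bracketing concentrations; unreached endpoints set to highest concentration. TGI denotes the concentration required for complete inhibition of growth.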 Bounds are passed on as bounds.

One assay concerns A549 NSCLC. In words: NCI tumour cell line growth inhibition, 48 h.
In turn, `CC1(C)CCCC2OC2CCC(C)(C)C1=O` (stereo not given) gave a TGI greater than 100 µM.

The molecule `O=C1NCC2(CCN(CCCC3(c4ccc(F)cc4)OCCO3)CC2)N1c1ccccc1` displayed a TGI greater than 100 µM.

`COc1ccc2c(c1)/C(=C\c1c(Cl)nc3sc(C)cn13)C(=O)N2`: the TGI was 17 µM.

In turn, `O=C(/C=C/c1ccc2c(c1)OCO2)CC(=O)C(=O)c1c[nH]c2ccccc12` showed a TGI greater than 100 µM.

`Cc1c(S(=O)(=O)c2ccccc2)c(N)n(CCN(C)C)c1C`: the TGI is greater than 100 µM.

As to `COc1ccc2c(c1)OCC1Cc3ccccc3OC21` (stereo not given), the TGI is greater than 100 µM.

Regarding `CCOC(=O)c1c(C)nc2c3ccccc3c(C#N)c(C)n12`, the TGI is greater than 100 µM.

Molecule `CCOC(=O)c1cn2c(nc1=O)N[C@H]1CCCC[C@@H]12` gave a TGI greater than 100 µM.

In the case of `O=C(CC(C(=O)c1ccsc1)c1ccc2c(c1)OCO2)c1ccccc1` (stereo not given), the TGI was determined as 50.7 µM.

In the case of `Oc1ccc([I+]c2ccccc2)cc1O`, the TGI is 65.5 µM.

`NS(=O)(=O)c1cc(Cl)c(NC(=S)NC(=O)Nc2ccc(Cl)c(Cl)c2)c(Cl)c1` gave a TGI greater than 100 µM.

The next assay deals with CCRF-CEM leukemia. In words: NCI tumour cell line growth inhibition, 48 h.
`CC1(C)CCCC2OC2CCC(C)(C)C1=O` (stereo not given) gave a TGI greater than 100 µM.

Regarding `O=C1NCC2(CCN(CCCC3(c4ccc(F)cc4)OCCO3)CC2)N1c1ccccc1`, the TGI was greater than 100 µM.

The molecule `COc1ccc2c(c1)/C(=C\c1c(Cl)nc3sc(C)cn13)C(=O)N2` registered a TGI of 6.15 µM.

With `O=C(/C=C/c1ccc2c(c1)OCO2)CC(=O)C(=O)c1c[nH]c2ccccc12`, the TGI was found to be 69.4 µM.

Consider `CC1=NN(c2cccc(Cl)c2)C2(SCC(=O)N2c2nc3ccccc3s2)/C1=C\c1ccccc1O` (stereo not given), for which the TGI was greater than 100 µM.

Molecule `Cc1c(S(=O)(=O)c2ccccc2)c(N)n(CCN(C)C)c1C` gave a TGI greater than 100 µM.

`COc1ccc2c(c1)OCC1Cc3ccccc3OC21` (stereo not given) came in with a TGI greater than 100 µM.

As to `CCOC(=O)c1c(C)nc2c3ccccc3c(C#N)c(C)n12`, the TGI is greater than 100 µM.

Molecule `CCOC(=O)c1cn2c(nc1=O)N[C@H]1CCCC[C@@H]12` yielded a TGI greater than 100 µM.

Turning to `O=C(CC(C(=O)c1ccsc1)c1ccc2c(c1)OCO2)c1ccccc1` (stereo not given), the TGI is greater than 100 µM.

For the molecule `Oc1ccc([I+]c2ccccc2)cc1O`, the TGI is 60.4 µM.

For the molecule `NS(=O)(=O)c1cc(Cl)c(NC(=S)NC(=O)Nc2ccc(Cl)c(Cl)c2)c(Cl)c1`, the TGI was greater than 100 µM.

For the next assay, the system named is HCC-2998 colon. In words: NCI tumour cell line growth inhibition, 48 h.
Consider `CC1(C)CCCC2OC2CCC(C)(C)C1=O` (stereo not given), for which the TGI was greater than 100 µM.

The molecule `O=C1NCC2(CCN(CCCC3(c4ccc(F)cc4)OCCO3)CC2)N1c1ccccc1` registered a TGI greater than 100 µM.

For the molecule `COc1ccc2c(c1)/C(=C\c1c(Cl)nc3sc(C)cn13)C(=O)N2`, the TGI came out at 18.3 µM.

Consider `O=C(/C=C/c1ccc2c(c1)OCO2)CC(=O)C(=O)c1c[nH]c2ccccc12`, for which the TGI was found to be 48.4 µM.

For `CC1=NN(c2cccc(Cl)c2)C2(SCC(=O)N2c2nc3ccccc3s2)/C1=C\c1ccccc1O` (stereo not given), the TGI turned out to be 42 µM.

`Cc1c(S(=O)(=O)c2ccccc2)c(N)n(CCN(C)C)c1C`: the TGI is greater than 100 µM.

In turn, `COc1ccc2c(c1)OCC1Cc3ccccc3OC21` (stereo not given) gave a TGI greater than 100 µM.

With `CCOC(=O)c1c(C)nc2c3ccccc3c(C#N)c(C)n12`, the TGI was greater than 100 µM.

`CCOC(=O)c1cn2c(nc1=O)N[C@H]1CCCC[C@@H]12` displayed a TGI greater than 100 µM.

Take `O=C(CC(C(=O)c1ccsc1)c1ccc2c(c1)OCO2)c1ccccc1` (stereo not given): the TGI was greater than 100 µM.

Turning to `Oc1ccc([I+]c2ccccc2)cc1O`, the TGI is 64.2 µM.

For the molecule `NS(=O)(=O)c1cc(Cl)c(NC(=S)NC(=O)Nc2ccc(Cl)c(Cl)c2)c(Cl)c1`, the TGI is greater than 100 µM.

For another assay, the system named is HOP-62 NSCLC. In words: NCI tumour cell line growth inhibition, 48 h.
Molecule `CC1(C)CCCC2OC2CCC(C)(C)C1=O` (stereo not given) displayed a TGI greater than 100 µM.

`O=C1NCC2(CCN(CCCC3(c4ccc(F)cc4)OCCO3)CC2)N1c1ccccc1` returned a TGI greater than 100 µM.

Molecule `COc1ccc2c(c1)/C(=C\c1c(Cl)nc3sc(C)cn13)C(=O)N2` had a TGI of 19.4 µM.

`O=C(/C=C/c1ccc2c(c1)OCO2)CC(=O)C(=O)c1c[nH]c2ccccc12` came in with a TGI greater than 100 µM.

In the case of `CC1=NN(c2cccc(Cl)c2)C2(SCC(=O)N2c2nc3ccccc3s2)/C1=C\c1ccccc1O` (stereo not given), the TGI stood at 54.7 µM.

`COc1ccc2c(c1)OCC1Cc3ccccc3OC21` (stereo not given) yielded a TGI greater than 100 µM.

Consider `CCOC(=O)c1c(C)nc2c3ccccc3c(C#N)c(C)n12`, for which the TGI was found to be 70.7 µM.

As to `O=C(CC(C(=O)c1ccsc1)c1ccc2c(c1)OCO2)c1ccccc1` (stereo not given), the TGI was greater than 100 µM.

Molecule `Oc1ccc([I+]c2ccccc2)cc1O` had a TGI greater than 100 µM.

For `NS(=O)(=O)c1cc(Cl)c(NC(=S)NC(=O)Nc2ccc(Cl)c(Cl)c2)c(Cl)c1`, the TGI was greater than 100 µM.

A further assay has as its system M14 melanoma. The assay is described as follows: NCI tumour cell line growth inhibition, 48 h.
As for `CC1(C)CCCC2OC2CCC(C)(C)C1=O` (stereo not given), the TGI was greater than 100 µM.

In turn, `O=C1NCC2(CCN(CCCC3(c4ccc(F)cc4)OCCO3)CC2)N1c1ccccc1` gave a TGI greater than 100 µM.

On to `COc1ccc2c(c1)/C(=C\c1c(Cl)nc3sc(C)cn13)C(=O)N2`, for which the TGI was 8.89 µM.

Molecule `O=C(/C=C/c1ccc2c(c1)OCO2)CC(=O)C(=O)c1c[nH]c2ccccc12` yielded a TGI greater than 100 µM.

`CC1=NN(c2cccc(Cl)c2)C2(SCC(=O)N2c2nc3ccccc3s2)/C1=C\c1ccccc1O` (stereo not given) gave a TGI of 55.4 µM.

Molecule `Cc1c(S(=O)(=O)c2ccccc2)c(N)n(CCN(C)C)c1C` registered a TGI greater than 100 µM.

For the molecule `COc1ccc2c(c1)OCC1Cc3ccccc3OC21` (stereo not given), the TGI was greater than 100 µM.

On to `CCOC(=O)c1cn2c(nc1=O)N[C@H]1CCCC[C@@H]12`, for which the TGI was greater than 100 µM.

In turn, `O=C(CC(C(=O)c1ccsc1)c1ccc2c(c1)OCO2)c1ccccc1` (stereo not given) returned a TGI greater than 100 µM.

With `NS(=O)(=O)c1cc(Cl)c(NC(=S)NC(=O)Nc2ccc(Cl)c(Cl)c2)c(Cl)c1`, the TGI is greater than 100 µM.

Values taken from PubChem BioAssay (NCI).
